Data from patent US9499550B2 (BRISTOL-MYERS SQUIBB COMPANY, priority 2012, dated 2016).
Read-outs that look alike come from different tables or passages of the source.

Experiments:
[1] = tested on: HCV genotype 1a (H77 strain) replicon in HUH-7 cells; experiment: HCV replicon luciferase reporter assay, genotype 1a; format: cell-based; details: HCV genotype 1a replicon luciferase, 3 days incubation
Summary of the method: (§1)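 Replicon inhibition for both genotypes was measured as Renilla luciferase signal (EnduRen, 7.5 μM final, 2 h) after 3-day, 37° C exposure of replicon-bearing HUH-7 cells in 4% FCS DMEM, 0.5% DMSO. The 1b construct carries S1179I; the 1a H77 construct carries P1496L and S2204I. Twenty-point, 3-fold dilutions were fitted four-parametrically for EC50, and CC50 was taken from multiplexed Cell Titer-Blue.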

[2] = tested on: HCV genotype 1b (Con1) replicon in HUH-7 cells; experiment: HCV replicon luciferase reporter assay, genotype 1b; format: cell-based; details: HCV genotype 1b replicon luciferase, 3 days incubation
Summary of the method: as §1

[3] = Hepatitis C virus, Huh-7, 72 h, read-out: LE_1a (EC50, range)
[4] = Hepatitis C virus, Huh-7, 72 h, read-out: LE_1b (EC50, range)

Compound: CCOc1ccc2c(O[C@@H]3C[C@H]4C(=O)N[C@]5(C(=O)NS(=O)(=O)C6(C)CC6)C[C@H]5/C=C\CC[C@@H](C)C[C@@H](CC)[C@H](NC(=O)OC(C)(C)C)C(=O)N4C3)nccc2c1 [Compound 5373, tert-butyl ((2R,6S,7R,9R,13aS,14aR,16aS,Z)-2-((6-ethoxyisoquinolin-1-yl)oxy)-7-ethyl-9-methyl-14a-(((1-methylcyclopropyl)sulfonyl)carbamoyl)-5,16-dioxo-1,2,3,5,6,7,8,9,10,11,13a,14,14a,15,16,16a-hexadecahydrocyclopropa[e]pyrrolo[1,2-a][1,4]diazacyclopentadecin-6-yl)carbamate]
- EC50 [1, 3]: 1.01 to 5 nM
- EC50 [2, 4]: 0.51 to 1 nM

Compound: COc1cc2ccnc(O[C@@H]3C[C@H]4C(=O)N[C@]5(C(=O)NS(=O)(=O)C6(C)CC6)C[C@H]5/C=C\CC[C@@H](C)C[C@@H](C)[C@H](NC(=O)OC(C)(C)C(F)(F)F)C(=O)N4C3)c2cc1OC [Compound 5375, 1,1,1-trifluoro-2-methylpropan-2-yl((2R,6S,7R,9R,13aS,14aR,16aS,Z)-2-((6,7-dimethoxyisoquinolin-1-yl)oxy)-7,9-dimethyl-14a-(((1-methylcyclopropyl)sulfonyl)carbamoyl)-5,16-dioxo-1,2,3,5,6,7,8,9,10,11,13a,14,14a,15,16,16a-hexadecahydrocyclopropa[e]pyrrolo[1,2-a][1,4]diazacyclopentadecin-6-yl)carbamate]
- EC50 [1, 3]: 1.01 to 5 nM
- EC50 [2, 4]: 0.51 to 1 nM

Compound: COc1cc2ccnc(O[C@@H]3C[C@H]4C(=O)N[C@]5(C(=O)NS(=O)(=O)C6(C)CC6)C[C@H]5/C=C\CC[C@@H](C)C[C@@H](C)[C@H](NC(=O)OC(C)(C)C(C)(F)F)C(=O)N4C3)c2cc1OC [Compound 5377, 3,3-difluoro-2-methylbutan-2-yl((2R,6S,7R,9R,13aS,14aR,16aS,Z)-2-((6,7-dimethoxyisoquinolin-1-yl)oxy)-7,9-dimethyl-14a-(((1-methylcyclopropyl)sulfonyl)carbamoyl)-5,16-dioxo-1,2,3,5,6,7,8,9,10,11,13a,14,14a,15,16,16a-hexadecahydrocyclopropa[e]pyrrolo[1,2-a][1,4]diazacyclopentadecin-6-yl)carbamate]
- EC50 [1, 3]: 1.01 to 5 nM
- EC50 [2, 4]: 1.01 to 5 nM

Compound: COc1cc2ccnc(O[C@@H]3C[C@H]4C(=O)N[C@]5(C(=O)NS(=O)(=O)C6(C)CC6)C[C@H]5/C=C\CC[C@@H](C)C[C@@H](C)[C@H](NC(=O)OC(C)(C)C)C(=O)N4C3)c2cc1OC [Compound 5379, tert-butyl ((2R,6S,7R,9R,13aS,14aR,16aS,Z)-2-((6,7-dimethoxyisoquinolin-1-yl)oxy)-7,9-dimethyl-14a-(((1-methylcyclopropyl)sulfonyl)carbamoyl)-5,16-dioxo-1,2,3,5,6,7,8,9,10,11,13a,14,14a,15,16,16a-hexadecahydrocyclopropa[e]pyrrolo[1,2-a][1,4]diazacyclopentadecin-6-yl)carbamate]
- EC50 [1, 3]: 1.01 to 5 nM
- EC50 [2, 4]: 1.01 to 5 nM

Compound: COc1cc2ccnc(O[C@@H]3C[C@H]4C(=O)N[C@]5(C(=O)NS(=O)(=O)C6(CF)CC6)C[C@H]5/C=C\CC[C@@H](C)C[C@@H](C)[C@H](NC(=O)OC(C)(C)C(F)(F)F)C(=O)N4C3)c2cc1OC [Compound 5381, 1,1,1-trifluoro-2-methylpropan-2-yl((2R,6S,7R,9R,13aS,14aR,16aS,Z)-2-((6,7-dimethoxyisoquinolin-1-yl)oxy)-14a-(((1-(fluoromethyl)cyclopropyl)sulfonyl)carbamoyl)-7,9-dimethyl-5,16-dioxo-1,2,3,5,6,7,8,9,10,11,13a,14,14a,15,16,16a-hexadecahydrocyclopropa[e]pyrrolo[1,2-a][1,4]diazacyclopentadecin-6-yl)carbamate]
- EC50 [1, 3]: 1.01 to 5 nM
- EC50 [2, 4]: 1.01 to 5 nM

Compound: COc1cc2ccnc(O[C@@H]3C[C@H]4C(=O)N[C@]5(C(=O)NS(=O)(=O)C6(CF)CC6)C[C@H]5/C=C\CC[C@@H](C)C[C@@H](C)[C@H](NC(=O)OC(C)(C)C(F)(F)F)C(=O)N4C3)c2cc1OC [Compound 5383, 1,1,1-trifluoro-2-methylpropan-2-yl((2R,6S,7R,9R,13aS,14aR,16aS,Z)-2-((6,7-dimethoxyisoquinolin-1-yl)oxy)-14a-(((1-(fluoromethyl)cyclopropyl)sulfonyl)carbamoyl)-7,9-dimethyl-5,16-dioxo-1,2,3,5,6,7,8,9,10,11,13a,14,14a,15,16,16a-hexadecahydrocyclopropa[e]pyrrolo[1,2-a][1,4]diazacyclopentadecin-6-yl)carbamate]
- EC50 ([1]; read-out: LE_1a (EC50, range)): 5.01 to 35 nM
- EC50 ([2]; read-out: LE_1b (EC50, range)): 1.01 to 5 nM

Compound: COc1cc2ccnc(O[C@@H]3C[C@H]4C(=O)N[C@]5(C(=O)NS(=O)(=O)C6(CF)CC6)C[C@H]5/C=C\CC[C@@H](C)C[C@@H](C)[C@H](NC(=O)OC(C)(C)C)C(=O)N4C3)c2cc1OC [Compound 5385, tert-butyl ((2R,6S,7R,9R,13aS,14aR,16aS,Z)-2-((6,7-dimethoxyisoquinolin-1-yl)oxy)-14a-(((1-(fluoromethyl)cyclopropyl)sulfonyl)carbamoyl)-7,9-dimethyl-5,16-dioxo-1,2,3,5,6,7,8,9,10,11,13a,14,14a,15,16,16a-hexadecahydrocyclopropa[e]pyrrolo[1,2-a][1,4]diazacyclopentadecin-6-yl)carbamate]
- EC50 [1, 3]: 5.01 to 35 nM
- EC50 [2, 4]: 1.01 to 5 nM

Compound: COc1cc2ccnc(O[C@@H]3C[C@H]4C(=O)N[C@]5(C(=O)NS(=O)(=O)C6CC6)C[C@H]5/C=C\CC[C@@H](C)C[C@@H](C)[C@H](NC(=O)OC(C)(C)C(F)(F)F)C(=O)N4C3)c2cc1OC [Compound 5387, 1,1,1-trifluoro-2-methylpropan-2-yl((2R,6S,7R,9R,13aS,14aR,16aS,Z)-14a-((cyclopropylsulfonyl)carbamoyl)-2-((6,7-dimethoxyisoquinolin-1-yl)oxy)-7,9-dimethyl-5,16-dioxo-1,2,3,5,6,7,8,9,10,11,13a,14,14a,15,16,16a-hexadecahydrocyclopropa[e]pyrrolo[1,2-a][1,4]diazacyclopentadecin-6-yl)carbamate]
- EC50 [1, 3]: 1.01 to 5 nM
- EC50 [2, 4]: 1.01 to 5 nM

Compound: COc1cc2ccnc(O[C@@H]3C[C@H]4C(=O)N[C@]5(C(=O)NS(=O)(=O)C6CC6)C[C@H]5/C=C\CC[C@@H](C)C[C@@H](C)[C@H](NC(=O)OC(C)(C)C(C)(F)F)C(=O)N4C3)c2cc1OC [Compound 5389, 3,3-difluoro-2-methylbutan-2-yl((2R,6S,7R,9R,13aS,14aR,16aS,Z)-14a-((cyclopropylsulfonyl)carbamoyl)-2-((6,7-dimethoxyisoquinolin-1-yl)oxy)-7,9-dimethyl-5,16-dioxo-1,2,3,5,6,7,8,9,10,11,13a,14,14a,15,16,16a-hexadecahydrocyclopropa[e]pyrrolo[1,2-a][1,4]diazacyclopentadecin-6-yl)carbamate]
- EC50 [1, 3]: 1.01 to 5 nM
- EC50 [2, 4]: 1.01 to 5 nM

Compound: COc1cc2ccnc(O[C@@H]3C[C@H]4C(=O)N[C@]5(C(=O)NS(=O)(=O)C6CC6)C[C@H]5/C=C\CC[C@@H](C)C[C@@H](C)[C@H](NC(=O)OC(C)(C)C)C(=O)N4C3)c2cc1OC [Compound 5391, tert-butyl ((2R,6S,7R,9R,13aS,14aR,16aS,Z)-14a-((cyclopropylsulfonyl)carbamoyl)-2-((6,7-dimethoxyisoquinolin-1-yl)oxy)-7,9-dimethyl-5,16-dioxo-1,2,3,5,6,7,8,9,10,11,13a,14,14a,15,16,16a-hexadecahydrocyclopropa[e]pyrrolo[1,2-a][1,4]diazacyclopentadecin-6-yl)carbamate]
- EC50 [1, 3]: 1.01 to 5 nM
- EC50 [2, 4]: 1.01 to 5 nM

Compound: CCOc1cc2ccnc(O[C@@H]3C[C@H]4C(=O)N[C@]5(C(=O)NS(=O)(=O)C6(C)CC6)C[C@H]5/C=C\CC[C@@H](C)C[C@@H](C)[C@H](NC(=O)OC(C)(C)C)C(=O)N4C3)c2cc1F [Compound 5393, tert-butyl ((2R,6S,7R,9R,13aS,14aR,16aS,Z)-2-((6-ethoxy-7-fluoroisoquinolin-1-yl)oxy)-7,9-dimethyl-14a-(((1-methylcyclopropyl)sulfonyl)carbamoyl)-5,16-dioxo-1,2,3,5,6,7,8,9,10,11,13a,14,14a,15,16,16a-hexadecahydrocyclopropa[e]pyrrolo[1,2-a][1,4]diazacyclopentadecin-6-yl)carbamate]
- EC50 ([1]; Hepatitis C virus, Huh-7, 72 h, read-out: LE_1a (EC50)): 0.92 nM
- EC50 [1, 3]: 0.51 to 1 nM
- EC50 ([2]; Hepatitis C virus, Huh-7, 72 h, read-out: LE_1b (EC50)): 0.55 nM
- EC50 [2, 4]: 0.51 to 1 nM

Compound: CCOc1cc2ccnc(O[C@@H]3C[C@H]4C(=O)N[C@]5(C(=O)NS(=O)(=O)C6(C)CC6)C[C@H]5/C=C\CC[C@@H](C)C[C@@H](C)[C@H](NC(=O)OC(C)(C)C(F)(F)F)C(=O)N4C3)c2cc1F [Compound 5395, 1,1,1-trifluoro-2-methylpropan-2-yl((2R,6S,7R,9R,13aS,14aR,16aS,Z)-2-((6-ethoxy-7-fluoroisoquinolin-1-yl)oxy)-7,9-dimethyl-14a-(((1-methylcyclopropyl)sulfonyl)carbamoyl)-5,16-dioxo-1,2,3,5,6,7,8,9,10,11,13a,14,14a,15,16,16a-hexadecahydrocyclopropa[e]pyrrolo[1,2-a][1,4]diazacyclopentadecin-6-yl)carbamate]
- EC50 [1, 3]: 1.01 to 5 nM
- EC50 [2, 4]: 0.51 to 1 nM
